The nature of series [1]: chemical stability of peptide conjugates under acidic, basic or oxidative conditions (HPLC). It is filed as physicochemical. The following applies: 10 h, conjugate 0.05 mM, three independent experiments; for stability of conjugate at pH 10.0: aqueous buffer pH 10.0, 37 °C. As to the method:
The conversion values represent means ± SDs (standard deviations) of three independent experiments The stability of protein conjugates is a major concern for bioconjugation reagents. […] Next, we investigated the stability of the (4-nitroimidazole)-thiol linkage. Thiol-maleimide and thiol-arylation conjugates are reported to degrade under acidic, basic, or oxidative conditions[25],[30],[31]. We incubated conjugate 1c' in aqueous buffer at pH 2.0, pH 10.0, or in the presence of 10 mM H2O2 for 10 h at 37 °C.
Next, we explored the application of 1,4-DNIms in Lys bioconjugation of peptides. […] HRMS analysis and NMR analysis determined that product 1d is a ε-(4-nitroimidazole)-Lys derivative (Fig. 6a, Supplementary Figs. 28–32). Next, we explored the chemoselectivity of compound 1a in DMSO via incubation with nucleophilic amino acids, including Tyr, Ser, Trp, His, Asp, and Arg. […] To sum up, 1,4-DNIms react specifically with cysteine thiols under neutral aqueous conditions, and modify lysine ε-amines through a distinct mechanism with high selectivity in organic solvents in the absence of thiols by generating stable conjugates.
Supplementary Figure 15. Stability of 4-nitroimidazole-ACA adduct 1c’ (0.05 mM) in buffers at pH 2.0, pH 10.0, or in 10 mM H2O2 at 37 °C for 10 h before subjected to HPLC analysis. Gradient used:isocratic 2% CH3CN for 5 min, then 2% to 90% CH3CN in 25 min, then isocratic 90% CH3CN for 5 min, then 90% to 2% CH3CN in 5 min. Monitor wavelength: 365 nm.
Supplementary Figure 16. Stability of NEM-2a’ conjugate (0.05 mM) in buffers at pH 2.0 and 10.0. NEM-2a’ conjugate was incubated at pH 2.0 and pH 10.0 at 37 °C for 10 h before subjected to HPLC analysis. Gradient used:isocratic 2% CH3CN for 5 min, then 2% to 90% CH3CN in 25 min, then isocratic 90% CH3CN for 5 min, then 90% to 2% CH3CN in 5 min. Monitor wavelength: 254 nm. […]

Series [2] in a line: Cys-Cys side-chain stapling of unprotected peptides with bis(1,4-dinitroimidazole) linker 5a (bis[(1,4-dinitroimidazol-2-yl)methyl] succinate, 1.0 eq) by cine-substitution at imidazole C5; sodium ascorbate 2.0 mM. The following applies: the molecule shown is the open-chain precursor, 100 mM HEPES buffer pH 7.0, 1.0 mM, 25.0 °C.
Series [3] in a line: Lys-Lys (or Dap-Dap) side-chain stapling of unprotected peptides with bis(1,4-dinitroimidazole) linker 5a (bis[(1,4-dinitroimidazol-2-yl)methyl] succinate, 1.2 mM), DIEA 4.0 mM; ANRORC ring-opening/ring-closing gives 1-alkyl-4-nitroimidazole linkages. The following applies: the molecule shown is the open-chain precursor, DMSO (ca. 84%, with ca. 10% water and 6% MeCN from stock solutions), 1.0 mM, 37.0 °C, 2.0 h.

The nature of series [4]: hydrolytic stability of reagents in PBS buffer pH 7.4 (HPLC). It is filed as physicochemical. The following applies: 100 mM PBS buffer, pH 7.4, 37 °C, HPLC analysis.
Description: Stability of N-phenyl maleimide in 100 mM PBS buffer,
pH 7.4 at 37 °C for indicated time before subjected to HPLC analysis.
at 37 °C for indicated time before subjected to HPLC analysis.
Series [5] in a line: solubility in aqueous solutions. Format: physicochemical. The source says:
Lysines are rich in natural proteins and usually solvent-exposed on protein surface, therefore representing a major competition.

Take `COC(=O)[C@H](C)NC(=O)[C@H](CSc1[nH]cnc1[N+](=O)[O-])NC(=O)[C@H](C)NC(C)=O` [1c]: in series [1] (10 mM H2O2 in Na2CO3 buffer at pH 8.0, 37 °C), the “stability of conjugate under oxidative conditions” value was “did not decompose”. Also, in series [1] (aqueous buffer pH 2.0, 37 °C), the “stability of conjugate at pH 2.0” value is “did not decompose”. Also, in series [1], the “stability of conjugate at pH 10.0” value was “did not decompose”.

The compound `CC(=O)N[C@@H](C)C(=O)N[C@@H](CSc1[nH]c(COC(=O)CCC(=O)OCc2nc([N+](=O)[O-])cn2[N+](=O)[O-])nc1[N+](=O)[O-])C(=O)N[C@@H](C)C(=O)N[C@@H](CCCNC(=N)N)C(=O)NCC(=O)N[C@@H](Cc1c[nH]c2ccccc12)C(=O)NCC(=O)N[C@@H](CS)C(=O)N[C@@H](C)C(=O)O` [Ac-Ala-Cys-Ala-Arg-Gly-Trp-Gly-Cys-Ala-OH] yielded a ring closure, conversion by HPLC in series [2] (37-membered ring, 0.167 h) of 95%. Consider `CC(=O)N[C@@H](C)C(=O)N[C@@H](CSc1[nH]c(COC(=O)CCC(=O)OCc2nc([N+](=O)[O-])cn2[N+](=O)[O-])nc1[N+](=O)[O-])C(=O)N[C@@H](C)C(=O)N[C@H](C(=O)N[C@@H](CC(N)=O)C(=O)N[C@@H](CS)C(=O)N[C@@H](C)C(=O)O)[C@@H](C)O` [Ac-Ala-Cys-Ala-Thr-Asn-Cys-Ala-OH], for which the ring closure, conversion by HPLC in series [2] (31-membered ring, 0.167 h) stood at 95%. Turning to `CC(=O)N[C@@H](C)C(=O)N[C@@H](CSc1[nH]c(COC(=O)CCC(=O)OCc2nc([N+](=O)[O-])cn2[N+](=O)[O-])nc1[N+](=O)[O-])C(=O)NCC(=O)N[C@@H](CS)C(=O)N[C@@H](C)C(=O)O` [Ac-Ala-Cys-Gly-Cys-Ala-OH], the ring closure, conversion by HPLC in series [2] (25-membered ring, 0.167 h) was 95%. The compound `CC(=O)N[C@@H](C)C(=O)N[C@@H](CSc1[nH]c(COC(=O)CCC(=O)OCc2nc([N+](=O)[O-])cn2[N+](=O)[O-])nc1[N+](=O)[O-])C(=O)NCC(=O)N[C@@H](Cc1ccccc1)C(=O)N[C@@H](CCCCN)C(=O)N[C@@H](C)C(=O)N[C@@H](CS)C(=O)NCC(=O)N[C@H](C(=O)N[C@@H](CCCCN)C(=O)O)C(C)C` [Ac-Ala-Cys-Gly-Phe-Lys-Ala-Cys-Gly-Val-Lys-OH] returned a ring closure, conversion by HPLC in series [2] (34-membered ring, 0.5 min) of 100%. `CC(=O)N[C@@H](C)C(=O)N[C@@H](Cn1cc([N+](=O)[O-])nc1COC(=O)CCC(=O)OCc1nc([N+](=O)[O-])cn1[N+](=O)[O-])C(=O)N[C@H](C(=O)N[C@H](C(=O)N[C@@H](Cc1ccccc1)C(=O)N[C@@H](CC(N)=O)C(=O)N[C@@H](CC(C)C)C(=O)N[C@@H](Cc1c[nH]c2ccccc12)C(=O)N[C@@H](CN)C(=O)N[C@@H](C)C(=O)O)[C@@H](C)O)[C@@H](C)O` [Ac-Ala-Dap-Thr-Thr-Phe-Asn-Leu-Trp-Dap-Ala-OH] displayed a ring closure, conversion by HPLC in series [3] (36-membered ring) of 95%. `CC(=O)N[C@@H](C)C(=O)N[C@@H](CCCCn1cc([N+](=O)[O-])nc1COC(=O)CCC(=O)OCc1nc([N+](=O)[O-])cn1[N+](=O)[O-])C(=O)N[C@@H](Cc1ccccc1)C(=O)N[C@@H](CC(N)=O)C(=O)N[C@@H](CC(C)C)C(=O)N[C@@H](Cc1c[nH]c2ccccc12)C(=O)N[C@@H](CCCCN)C(=O)N[C@@H](C)C(=O)O` [Ac-Ala-Lys-Phe-Asn-Leu-Trp-Lys-Ala-OH] displayed a ring closure, conversion by HPLC in series [3] (36-membered ring) of 90%. In the case of `CC(=O)N[C@@H](C)C(=O)N[C@@H](CCCCn1cc([N+](=O)[O-])nc1COC(=O)CCC(=O)OCc1nc([N+](=O)[O-])cn1[N+](=O)[O-])C(=O)N[C@H](C(=O)N[C@@H](Cc1ccccc1)C(=O)N[C@@H](CC(N)=O)C(=O)N[C@@H](CCCCN)C(=O)N[C@@H](C)C(=O)O)[C@@H](C)O` [Ac-Ala-Lys-Thr-Phe-Asn-Lys-Ala-OH], the ring closure, conversion by HPLC in series [3] (33-membered ring) stood at 95%. In turn, `CC(=O)N[C@@H](CC(C)C)C(=O)N[C@H](C(=O)N[C@@H](Cc1ccccc1)C(=O)N[C@@H](CCCCn1cc([N+](=O)[O-])nc1COC(=O)CCC(=O)OCc1nc([N+](=O)[O-])cn1[N+](=O)[O-])C(=O)N[C@@H](Cc1c[nH]cn1)C(=O)N[C@@H](Cc1ccc(O)cc1)C(=O)N[C@@H](Cc1c[nH]c2ccccc12)C(=O)N[C@@H](C)C(=O)N[C@@H](CCC(N)=O)C(=O)N[C@@H](CC(C)C)C(=O)N[C@@H](CCCCN)C(=O)N[C@@H](CO)C(=O)O)[C@@H](C)O` [Ac-Leu-Thr-Phe-Lys-His-Tyr-Trp-Ala-Gln-Leu-Lys-Ser-OH] yielded a ring closure, conversion by HPLC in series [3] (42-membered ring) of 90%. Take `N=C(N)NCCC[C@H](NC(=O)[C@H](CSc1[nH]c(COC(=O)CCC(=O)OCc2nc([N+](=O)[O-])cn2[N+](=O)[O-])nc1[N+](=O)[O-])NC(=O)[C@@H](N)Cc1ccccc1)C(=O)NCC(=O)N[C@@H](CC(=O)O)C(=O)N[C@@H](CS)C(=O)O` [H-Phe-Cys-Arg-Gly-Asp-Cys-OH]: the ring closure, conversion by HPLC in series [2] (31-membered ring, 0.167 h) stood at 90%. As for `CCN1C(=O)CC(SC[C@H](NC(=O)[C@H](C)NC(C)=O)C(=O)N[C@@H](C)C(=O)O)C1=O` (stereo partly shown) [N-ethyl maleimide conjugate of 2a′], in series [1], the “stability of conjugate at pH 10.0” value was “complete hydrolysis”.

Regarding `O=C1C=CC(=O)N1c1ccccc1` [N-phenyl maleimide], the “time to complete hydrolysis (yielding the maleamic acid)” value in series [4] is given as not above 2 h. As for `O=S(=O)(c1c(F)c(F)c(F)c(F)c1F)c1c(F)c(F)c(F)c(F)c1F` [pf1, 6,6′-sulfonylbis(1,2,3,4,5-pentafluorobenzene)], the “solubility in aqueous solutions” value in series [5] was less than 50 µM. As for “Ac-Ala-Lys-Ser-Gln-Val-Thr-Phe-Asn-Leu-Trp-Arg-Met-Gln-Lys-Ala-OH”, the ring closure, conversion by HPLC in series [3] (57-membered ring) is 92%.

The record behind these values is publication PMC6329768, “Dinitroimidazoles as bifunctional bioconjugation reagents for protein functionalization and peptide macrocyclization” (Nature Communications, 2019).
